Experimental data taken from US20110039721A1, “METHOD FOR PREDICTION ABOUT CARCINOGENICITY OF SUBSTANCE IN RODENT” (Chemicals Evaluation and Research Institute, priority 2007, published 2011).

What was measured:
[1] = test system: mRNA expressed from the genes (A) to (D) in rat liver; assay: Behavior of genes (mRNA expression level, oligo-DNA microarray) in rat liver after 28-day oral administration; type: in vivo; details: rat liver, oral once daily 28 days
How it was run: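 Liver mRNA measured by oligo-DNA microarray after 28 days of once-daily oral gavage in 5-week-old male F344 rats (n=4 per group), with vehicle controls given equal solvent volume. Significance threshold: 1.5-fold up or down versus control, with changes opposite in direction to other carcinogens counted as not significant.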

liver = details: in vivo; cited from earlier work
rodent = details: in vivo; cited from earlier work
[2] = (C), Unigene Rn.120914, defined direction +

CC(=N)S [TS030, Thioacetoamide]
−: Behavior of gene caused by administration of chemical substance, Gene No. 2045 ([1]; (B), Unigene Rn.19329, defined direction +) | Behavior of gene caused by administration of chemical substance, Gene No. 2203 ([1]; (B), Unigene Rn.21240, defined direction +) | Behavior of gene caused by administration of chemical substance, Gene No. 1163 ([1]; (C), Unigene Rn.11766, defined direction +) | Behavior of gene caused by administration of chemical substance, Gene No. 1334 [1, 2] | Behavior of gene caused by administration of chemical substance, Gene No. 6620 [1, 2] | Behavior of gene caused by administration of chemical substance, Gene No. 5878 ([1]; (C), Unigene Rn.143213, defined direction −) | Behavior of gene caused by administration of chemical substance, Gene No. 1131 ([1]; (C), Unigene Rn.144946, defined direction −) | Behavior of gene caused by administration of chemical substance, Gene No. 6026 ([1]; (C), Unigene Rn.167685, defined direction −) | Behavior of gene caused by administration of chemical substance, Gene No. 2546 ([1]; (C), Unigene Rn.24561, defined direction −) | Behavior of gene caused by administration of chemical substance, Gene No. 3929 ([1]; (C), Unigene Rn.4620, defined direction +) | Behavior of gene caused by administration of chemical substance, Gene No. 1119 ([1]; (C), Unigene Rn.9757, defined direction +) | Behavior of gene caused by administration of chemical substance, Gene No. 6742 ([1]; (C), Unigene Rn.9779, defined direction +) | Behavior of gene caused by administration of chemical substance, Gene No. 5634 ([1]; (C), Unigene Rn.9862, defined direction −)
C+: Carcinogenicity (rodent)
+: Behavior of gene caused by administration of chemical substance, Gene No. 4846 ([1]; (A), Unigene Rn.144554, defined direction +) | Behavior of gene caused by administration of chemical substance, Gene No. 4218 ([1]; (A), Unigene Rn.167075, defined direction +, significant = 1.5 times or more or 1/1.5 or less of control) | Behavior of gene caused by administration of chemical substance, Gene No. 2026 ([1]; (A), Unigene Rn.167075, defined direction −) | Behavior of gene caused by administration of chemical substance, Gene No. 6182 ([1]; (A), Unigene Rn.5834, defined direction +) | Behavior of gene caused by administration of chemical substance, Gene No. 5600 ([1]; (A), Unigene Rn.9836, defined direction +) | Behavior of gene caused by administration of chemical substance, Gene No. 1494 ([1]; (B), Unigene Rn.1430, defined direction −) | Behavior of gene caused by administration of chemical substance, Gene No. 533 ([1]; (C), Unigene Rn.106184, defined direction +) | Behavior of gene caused by administration of chemical substance, Gene No. 725 ([1]; (C), Unigene Rn.108075, defined direction −) | Behavior of gene caused by administration of chemical substance, Gene No. 4973 ([1]; (C), Unigene Rn.118529, defined direction −) | Behavior of gene caused by administration of chemical substance, Gene No. 4095 ([1]; (C), Unigene Rn.119024, defined direction −) | Behavior of gene caused by administration of chemical substance, Gene No. 6303 ([1]; (C), Unigene Rn.123063, defined direction −) | Behavior of gene caused by administration of chemical substance, Gene No. 1562 ([1]; (C), Unigene Rn.14744, defined direction −) | Behavior of gene caused by administration of chemical substance, Gene No. 1741 ([1]; (C), Unigene Rn.1647, defined direction −) | Behavior of gene caused by administration of chemical substance, Gene No. 893 ([1]; (C), Unigene Rn.164817, defined direction +) | Behavior of gene caused by administration of chemical substance, Gene No. 154 ([1]; (C), Unigene Rn.185941, defined direction −) | Behavior of gene caused by administration of chemical substance, Gene No. 1993 ([1]; (C), Unigene Rn.18728, defined direction −) | Behavior of gene caused by administration of chemical substance, Gene No. 813 ([1]; (C), Unigene Rn.201760, defined direction +) | Behavior of gene caused by administration of chemical substance, Gene No. 2494 ([1]; (C), Unigene Rn.23969, defined direction +) | Behavior of gene caused by administration of chemical substance, Gene No. 3776 ([1]; (C), Unigene Rn.43232, defined direction −) | Behavior of gene caused by administration of chemical substance, Gene No. 5726 ([1]; (D), Unigene Rn.9939, defined direction −)
Cr+: Liver carcinogenicity (liver)
